What was measured:
Type in all cases: cell-based, human
SkBr3 spheroids = assay: Spheres / stem-like spheroids
Description: (§1) Total mRNA from MDA-MB-231, SkBr3 and MDA-MB-436 cells treated ±MitoQ for 48 h was extracted using the NucleoSpin RNA Kit (Macherey-Nagel®). Total mRNA from primary tumors was extracted with Tri reagent (Molecular Research Center®, Cat #TR118). mRNAs were quantified by the Qubit BR dsRNA assay kit (Thermo Fisher Scientific®), and mRNA integrity was evaluated on an Agilent® 2100 Bioanalyzer with the RNA 6000 nano kit (Agilent®). It was reverse transcribed in complementary DNA using the High-Capacity cDNA Reverse Transcription Kit (Applied Biosystems®, cat #4368814) according to manufacturer's protocol. Complementary DNA (500 ng) was amplified by real time quantitative PCR (RT-qPCR) using the low ROX SYBR Master Mix dTTP Blue (Eurogentec®) and primers listed in Table 5 and Table 6 on a ViiA 7 Real-Time PCR System (Thermo Fisher Scientific®). Gene expression was normalized to β-actin gene expression.
(§2) 3D models were used to obtain an enriched population in stem cells. For that, 10^4 MDA-MB-231, SkBr3 or MDA-MB-436 cancer cells were grown in suspension using 10 cm dishes coated with Polyhema in stem-cell medium: DMEM/F-12 (Gibco®, cat #11320033) supplemented with 100 units/mL penicillin, 100 μg/mL streptomycin, 20 μL/mL B27 (Gibco®, cat #17504044), 20 ng/mL human recombinant epithelial growth factor (EGF) (Peprotech®, cat #AF-100-15), 10 ng/mL basic fibroblast growth factor (bFGF; Peprotech®, cat #100-18B) and 2.5 mg/mL insulin. When spheres reached around 100 μm in diameter, they were washed with PBS and dissociated with accutase (Stem Cell Technology®, cat #07920) in order to have single cells again. At the third passage, dissociated spheres were treated ±MitoQ for 96 h. Images were captured on Axiovert™ 40 CFL microscope equipped with a MRC camera. At the end of the treatment, living cells were collected for RNA extraction.
(§3) Stem like-spheroids were prepared by seeding 5,000 MDA-MB-231, SkBr3 or MDA-MB-436 dissociated spheres/well in ultra-Low attachment 96-well plates (Corning®, cat #7007) in stem cell medium supplemented as described above. After overnight formation, spheroids were treated ±MitoQ for 96 h. Spheroid growth was monitored using an Axio Observer live-cell phase contrast microscope (Zeiss®).

MDA-MB-231 spheroids = assay: Spheres / stem-like spheroids
Description: as §1, §2, §3

MDA-MB-436 cells = assay: RT-qPCR of EMT markers; settings: MitoQ 100 nM, 48 h
Description: as §1

SkBr3 cells [1] = assay: RT-qPCR of EMT markers; settings: MitoQ 500 nM, 48 h
Description: as §1

MDA-MB-231 cells [2] = assay: RT-qPCR of EMT markers; settings: MitoQ 500 nM, 48 h
Description: as §1

SkBr3 cells [3] = assay: RNA sequencing; settings: MitoQ 500 nM, 48 h; |log 2 fold change|>1 and P<0.01
Description: (§4) MDA-MB-231 and SkBr3 cancer cells were treated ±MitoQ for 48 h. Total mRNA was then extracted using the NucleoSpin RNA kit (Macherey-Nagel®), including DNAse treatment in the intermediary steps. mRNAs were quantified using the Qubit BR dsRNA assay kit (Thermo Fisher Scientific®), and mRNA integrity was evaluated on the Agilent 2100 Bioanalyzer using the RNA 6000 nano kit (Agilent®). All samples had RNA integrity number values ≥7.5. Libraries from control and treated samples were prepared starting from 150 ng of total mRNA using the KAPA RNA HyperPrep Kit with RiboErase (HMR) kit (KAPA Biosystems®) following the manufacturer's recommendations (KR1351—v1.16). Libraries were equimolarly pooled and sequenced on a single lane of an Illumina® NovaSeq 6000 platform. All libraries were sequenced at a depth of >50 million paired-end reads (2×100 bp reads) per sample. All sequencing data were analyzed using the Automated Reproducible MOdular workflow for preprocessing and differential analysis of RNAseq data (ARMOR) pipeline. In this pipeline, reads underwent a quality check using FastQC. Quantification and quality control results were summarized in a MultiQC report before being mapped using Salmon to the transcriptome index that was built using all Ensembl cDNA sequences obtained in the Homo_sapiens.GRCh38.cdna.all.fa file. Then, estimated transcript abundances from Salmon were imported into R using the tximeta package, and analyzed for differential gene expression with edgeR. To get a robust signature, only genes with |log 2 Fold Change|>1 and P<0.01 were retained.

MDA-MB-231 cells [4] = assay: RNA sequencing; settings: MitoQ 500 nM, 48 h; |log 2 fold change|>1 and P<0.01
Description: as §4

[5] = tested on: MDA-MB-231 and SkBr3 cells in culture; assay: RT-qPCR validation of mRNA biomarkers in vitro; settings: MitoQ 500 nM, 48 h
Description: as §1
While EMT and sternness markers are usual suspects when testing antimetastatic strategies, it was decided to go deeper in the understanding of the molecular effects of MitoQ, and performed unbiased RNA sequencing (RNAseq) using cells treated for 48 h±MitoQ (500 nM). […] On independent samples upon the same conditions (including |log 2 Fold Change|>1 and P<0.01), RT-qPCR on the two cell lines validated all genes as potential biomarkers of human breast cancer cell response to MitoQ, to the exception of EID1, PEG10, FTH1 and NUPR1 (FIG. 12A-M and Table 7).

## COC1=C(OC)C(=O)C(CCCCCCCCCC[P+](c2ccccc2)(c2ccccc2)c2ccccc2)=C(C)C1=O [MitoQ]
SkBr3 spheroids
  NANOG and SOX2 mRNA expression: decreased
  spheroid formation and spheroid destabilization: Neither inhibition of spheroid formation not spheroid destabilization was seen
MDA-MB-231 spheroids
  dose sufficient to destabilize already formed spheroids: 100 nM
MDA-MB-231 spheroids; MitoQ 250 nM
  mRNA expression of stem cells markers POU5F1/(Oct4), NANOG and SOX2: significant decrease
  spheroid formation: inhibited
MDA-MB-436 cells
  mRNA expression of EMT markers VIM (vimentin), SNAI1, SNAI2 and TWIST1: downregulated
SkBr3 cells [1]
  mRNA expression of all analyzed EMT inducers: repressed
MDA-MB-231 cells [2]
  SLUG/SNAI2 transcription: not significantly altered
  mRNA expression of EMT markers vimentin (VIM), SNAIL (SNAI1), ZEB1 and TWIST1: decreased
SkBr3 cells [3]
  number of downregulated transcripts: 5
  number of upregulated transcripts: 20
MDA-MB-231 cells [4]
  number of downregulated transcripts: 1,943
  number of upregulated transcripts: 2,153
[5]
  ASNS transcript upregulated in response to MitoQ: Validated in vitro: + (Repressed or induced by ≥2-fold with P < 0.01 in both MDA-MB-231 and SkBr3 cells in culture.)
  G6PD transcript upregulated in response to MitoQ: Validated in vitro: + (Repressed or induced by ≥2-fold with P < 0.01 in both MDA-MB-231 and SkBr3 cells in culture.)
  PCK2 transcript upregulated in response to MitoQ: Validated in vitro: + (Repressed or induced by ≥2-fold with P < 0.01 in both MDA-MB-231 and SkBr3 cells in culture.)
  PHGDH-1 transcript upregulated in response to MitoQ: Validated in vitro: + (Repressed or induced by ≥2-fold with P < 0.01 in both MDA-MB-231 and SkBr3 cells in culture.)
  PSAT1 transcript upregulated in response to MitoQ: Validated in vitro: + (Repressed or induced by ≥2-fold with P < 0.01 in both MDA-MB-231 and SkBr3 cells in culture.)
  SERPINE1 transcript upregulated in response to MitoQ: Validated in vitro: + (Repressed or induced by ≥2-fold with P < 0.01 in both MDA-MB-231 and SkBr3 cells in culture.)
  SLC6A9 transcript upregulated in response to MitoQ: Validated in vitro: + (Repressed or induced by ≥2-fold with P < 0.01 in both MDA-MB-231 and SkBr3 cells in culture.)
  SLC7A11 transcript upregulated in response to MitoQ: Validated in vitro: + (Repressed or induced by ≥2-fold with P < 0.01 in both MDA-MB-231 and SkBr3 cells in culture.)
  TXNRD1 transcript upregulated in response to MitoQ: Validated in vitro: + (Repressed or induced by ≥2-fold with P < 0.01 in both MDA-MB-231 and SkBr3 cells in culture.)

From patent US20250270648A1, “MOLECULAR SIGNATURE FOR ASSESSING THE RESPONSIVENESS OF CANCER TO MITOCHONDRIA-TARGETED ANTIOXIDANTS” (UNIVERSITÉ CATHOLIQUE DE LOUVAIN, priority 2021, published 2025)
